In assay [1] the target is T1, MetQ (Streptococcus pneumoniae, UniProt A0A0H2ZPC6).
T1 construct: gene SPD_0151; His6-MetQ (Sp_0149) without the predicted N-terminal signal peptide, ligand free, cloned from strain D39
Description: tryptophan fluorescence spectroscopy titration. Type of assay: binding.

Assay [2] concerns the target T1, MetQ. Description: isothermal titration calorimetry (also tryptophan fluorescence, KD […]). Type of assay: binding. A general note: ITC needs no label: the signal is the heat of the interaction.

T1 sequence (A0A0H2ZPC6 entry or part of it): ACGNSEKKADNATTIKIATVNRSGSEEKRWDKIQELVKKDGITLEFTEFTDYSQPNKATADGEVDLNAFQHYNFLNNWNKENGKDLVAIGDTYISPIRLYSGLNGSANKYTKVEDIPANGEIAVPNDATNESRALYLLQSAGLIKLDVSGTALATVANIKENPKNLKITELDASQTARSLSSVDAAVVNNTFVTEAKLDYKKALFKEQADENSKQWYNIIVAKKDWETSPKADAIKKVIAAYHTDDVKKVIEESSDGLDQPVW

What is called Kd is the free concentration of one partner at which half of the binding sites on the other are occupied at equilibrium, for simple one-to-one binding. Take `CSCC[C@@H](N)C(=O)O` [D-methionine]: at MetQ [1], the Kd was 27.4 ± 0.96 µM. In the case of `CSCC[C@H](N)C(=O)O` [L-methionine], binding at MetQ [2] was characterised by a dissociation constant (Kd) of 0.0266 ± 0.00128 µM. With `NC(CCS)C(=O)O` (racemic) [DL-homocysteine], the Kd at MetQ [1] worked out at 7 ± 0.26 µM.

On MetQ [1], `CSCCC(C)(N)C(=O)O` (racemic) [α-methyl-DL-methionine] had a Kd of 30.1 ± 0.86 µM. This Kd is about 4.3-fold higher than that of the compound before.

For the origin of these results see publication PMC3551916, “The Effects of Methionine Acquisition and Synthesis on Streptococcus Pneumoniae Growth and Virulence” (PLoS ONE, 2013).
